Columns and labels:
[1] = tested on: glioblastoma cell line (A172, T98G, U251, and U87); test: WST-8 viable cell assay; format: cell-based, human; conditions: 5-50 μM, compared with DMSO, FIGS. 9, 10A
Description: In this example, 4 types of glioblastoma cell line (A172, T98G, U251, and U87 purchased from American Type Culture Collection [ATCC, Manassas, Va.]) and human embryonic kidney cells HEK293 were used as subjects. The expression of GSK3β and the expression of its fractions that had undergone phosphorylation in these cell lines were analyzed in accordance with <Example 1>. Furthermore, the effects of a known GSK3β inhibitor (AR-A014418 or SB-216763) on the survival, proliferation, and apoptosis of tumor cells were analyzed in a manner similar to that in the case of colon cancer cells. […] Number of viable cells and apoptosis frequencies were measured over time. As controls, number of viable cells and apoptosis frequencies were also measured for cells that had been cultured after addition of the same amount of DMSO. In addition, unlike <Example 1>, a WST-8** assay kit (Cell Counting Kit-8, Wako, Osaka) and a microplate reader produced by Bio-Rad Laboratories, Inc. (Hercules, Calif.) were used for measurement of number of viable cells. Furthermore, regarding cell fractions during the proliferation phase, the number of cells incorporating bromodeoxy uridine (BrdU) was measured using a Cell Proliferation ELISA BrdU Kit (Roche, Panzberg, Germany), and then the influence of the GSK3β inhibitor (AR-A014418 or SB-216763) on the proliferation of tumor cells was analyzed.

colon cancer cells = test: Apoptosis (Hoechst staining) and proliferation (PCNA labeling index) by double staining; format: cell-based, human; conditions: for cellular proliferation rates (PCNA labeling index): FIG. 4D; for apoptosis frequency: Hoechst staining, FIG. 4C
Description: (§1) A, B, and E: The number of viable cells in each well as measured by MTS assay at points in time at which the indicated lengths of the time (24, 48, 72, and 96 hours) had elapsed since day 0. C and D: The proportion (D) of proliferating cells' nuclei (PCNA positive) in all the cells observed or the proportion (C) of nuclei undergoing apoptosis in all the cells observed when the cells were subjected to double staining by an immunofluorescence method using an anti-PCNA (proliferating cell nuclear antigen) antibody and Hoechst and then observed under a fluorescence microscope.

HEK293 cells [2] = test: as above; format: cell-based, human; conditions: for changes in apoptosis frequency: FIG. 4C; for changes in cellular proliferation rates (PCNA labeling index): FIG. 4D
Description: as §1

[3] = tested on: telomerase activity in colon cancer cell lines (SW480 and HCT116); test: Telomerase activity (TRAPEZE Telomerase Detection Kit); format: cell-based, human; conditions: 25 μM inhibitor, 72 or 96 hours, FIG. 14
Description: (§2) In accordance with <Example 1>, each colon cancer cell line (SW480 and HCT116) and a non-cancer cell line (human embryonic kidney cells HEK293) were treated with a 25 μM GSK3β inhibitor (AR-A014418 or SB-216763) or GSK3β-specific RNA interference. As controls, DMSO was administered to these cells or the cells were treated with non-specific RNA interference. Subsequently, the frequency of senescent cells in control cells was compared with that in the corresponding cells in which GSK3β had been inhibited and then the result was analyzed. Furthermore, human telomerase reverse transcriptase (hTERT) mRNA expression that is a molecular indication of cell immortalization and changes in telomerase activity in these cells were compared and analyzed over time.
(§3) hTERT mRNA expression was analyzed by extracting total RNA from subject cells and then performing the RT-PCR method. An upstream primer (5′-[…]-3′: SEQ ID NO: 3) and a downstream primer (5′-GGATGAAGCGGAGTCTGGA-3′: SEQ ID NO: 4) were used for RT-PCR. The hTERT gene was amplified by performing 36 or 38 cycles of an RT-PCR program (15 seconds at 94° C., 10 seconds at 55° C., and 9 seconds at 72° C.). Telomerase activity was detected in accordance with recommended protocols using a commercial kit (TRAPEZE® Telomerase Detection Kit, Chemicon International). hTERT expression levels and telomerase activity in GSK3β-inhibited cells and control cells were determined via measurement and quantification of signals on electrophoresis using a densitometer (NIH Image Software), followed by comparison and analysis thereof.

[4] = tested on: telomerase activity in HEK293 cells; test: as above; format: cell-based, human; conditions: 25 μM inhibitor, FIG. 14
Description: as §2, §3

[5] = tested on: colon cancer cell line (SW480 and HCT116); test: Cellular senescence by x-gal staining; format: cell-based, human; conditions: colon cancer cell lines; 25 μM; 72 hours; compared with DMSO; FIGS. 11 and 12
Description: (§4) In accordance with <Example 1>, each colon cancer cell line (SW480 and HCT116) and a non-cancer cell line (human embryonic kidney cells HEK293) were treated with a 25 μM GSK3β inhibitor (AR-A014418 or SB-216763) or GSK3β-specific RNA interference. As controls, DMSO was administered to these cells or the cells were treated with non-specific RNA interference. Subsequently, the frequency of senescent cells in control cells was compared with that in the corresponding cells in which GSK3β had been inhibited and then the result was analyzed. Furthermore, human telomerase reverse transcriptase (hTERT) mRNA expression that is a molecular indication of cell immortalization and changes in telomerase activity in these cells were compared and analyzed over time. Senescent cells were determined as cells found to be positive for x-gal staining that is an indicator of (3-galactosidase activity. Practically, for this staining, cells cultured on cover glasses were washed with phosphate buffered saline (PBS) and then fixed using a citrate.phosphate fixation solution (0.1 M citric acid, 0.2 M Na2HPO4, pH 6.0) at room temperature for 5 minutes. Subsequently, cells were washed twice with PBS and then caused to react using a x-gal staining solution (1 mg/mL x-gal [Sigma-Aldrich], 5 mM K3Fe[CN]6, 2 mM MgCl2, 150 mM NaCl, 30 mM citrate.phosphate buffer, and 5 mM K4Fe[CN]6) at 37° C. for 20 hours. Stained cells were washed with PBS and then fixed again with 4% paraformaldehyde. X-gal staining positive cells were identified by observation under a light microscope. The frequency of senescent cells was determined by observing 5 high-power fields and measuring and calculating the average frequency of x-gal staining positive cells in the total number of cells (approximately 100 cells) in each field.

HEK293 cells [6] = test: Cellular senescence by x-gal staining; format: cell-based, human; conditions: 25 μM, 72 hours, compared with DMSO
Description: as §4

[7] = molecular target: GSK3β immunoprecipitated from colon cancer cell lines (SW480 and HCT116) (Homo sapiens, UniProt P49841); test: Non-radioisotopic in vitro GSK3β enzyme activity assay; format: biochemical; conditions: 25 μM, compared with DMSO, FIG. 19
GSK3β immunoprecipitated from colon cancer cell lines (SW480 and HCT116), sequence (P49841 whole entry): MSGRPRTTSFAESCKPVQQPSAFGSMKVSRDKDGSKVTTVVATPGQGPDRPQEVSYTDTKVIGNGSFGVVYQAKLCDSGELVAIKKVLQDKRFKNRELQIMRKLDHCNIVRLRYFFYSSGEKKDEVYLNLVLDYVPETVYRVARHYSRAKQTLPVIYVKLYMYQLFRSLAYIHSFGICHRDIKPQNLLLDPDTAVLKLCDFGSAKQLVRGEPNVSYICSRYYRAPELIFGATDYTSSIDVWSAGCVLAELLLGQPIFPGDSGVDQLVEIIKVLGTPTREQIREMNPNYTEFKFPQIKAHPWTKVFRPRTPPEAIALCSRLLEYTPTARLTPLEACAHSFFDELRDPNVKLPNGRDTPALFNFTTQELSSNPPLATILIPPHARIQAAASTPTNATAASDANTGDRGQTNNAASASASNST
Description: First, a specific anti-GSK3β antibody and beads (resins) are added to a cell extract and then the GSK3β protein is immunoprecipitated (S in FIG. 16). As a negative control (control), non-specific mouse IgG with the same concentration is added to the same type of cell extract (C in FIG. 16). Next, in the presence of a kinase buffer, a recombinant human β-catenin protein (substrate) and nonradioactive ATP (P in FIG. 16) are added, and then a phosphorylation reaction is performed. Subsequently, the reaction solution is analyzed by the Western blot method. A phosphorylated human β-catenin protein is detected using an anti-phosphorylate β-catenin peptides antibody. […] In accordance with the methods in <Example 1>, the protein was extracted from each cell line using a cell lysis buffer (0.2 M Tris-HCl pH 7.5, 1.5 M NaCl, 10 mM EDTA, 10 mM EGTA, 10% Triton X-100, 25 mM sodium pyrophosphate, 10 mM β-glyceophosphate, 10 mM Na3VO4, and Protease inhibitors cocktail [Sigma-Aldrich]). […] Next, GSK3β and the recombinant human β-catenin protein in the reaction solutions were similarly detected by the Western blot method. […] These reaction solutions were similarly analyzed by the Western blot method.

[8] = tested on: Colon cancer cell lines (SW480 and HCT116); test: MTS viable cell assay (cell survival); format: cell-based, human; conditions: 5, 10, 25, and 50 μM, 24-96 hours, FIG. 4A
Description: (§5) Each colon cancer cell line and HEK293 cells were seeded at 3×10^3 cells per well of 96-well culture plates and then cultured overnight in corresponding media (this day was designated day 0). Known GSK3β inhibitors, AR-A014418 (N-(4-methoxybenzyl)-N′-(5-nitro-1,3-thiazol-2-yl)urea, Calbiochem) and SB-216763 (3-(2,4-dichlorophenyl)-4-(1-methyl-1H-indol-3-yl)-1H-pyrrole-2,5-dione, Sigma-Aldrich) were dissolved in dimethyl sulfoxide (DMSO). On day 0, the medium for each cell line were exchanged and then AR-A014418 or SB-216763 was added to the medium to different concentrations (5, 10, 25, and 50 μM). As controls, samples prepared by adding AR-A014418 or SB-216763 to the same concentrations to wells containing no cells and a sample prepared by adding DMSO alone to a well containing cells were analyzed simultaneously.
(§6) At time points after indicated lengths of the times (24, 48, 72, and 96 hours) had elapsed from day 0, the number of viable cells in each well was measured using an MTS* viable cell measurement kit (CellTiter 96™ Aqueous, Promega Corp) in accordance with the protocols of Promega. Practically, 20 μL of an MTS mixture solution that had been prepared immediately before addition was added to each well, followed by three hours of reaction at 37° C. under 5% CO2 wet conditions. Absorbance at a wavelength of 490 nm was measured using a THERMOmax microplate reader (Molecular Devices). The number of cells of each cell line (in 6 wells for treatment by each concentration of AR-A014418 or SB-216763) was measured, and the average absorbance was calculated to determine the number of viable cells.

HEK293 cells [9] = test: MTS viable cell assay (cell survival); format: cell-based, human; conditions: FIG. 4A
Description: as §5, §6

[10] = tested on: human telomerase reverse transcriptase (hTERT) in HEK293 cells; test: hTERT mRNA expression by RT-PCR; format: cell-based; conditions: 25 μM inhibitor, FIG. 13
Description: as §2, §3

[11] = tested on: human telomerase reverse transcriptase (hTERT) in colon cancer cell lines (SW480 and HCT116); test: hTERT mRNA expression by RT-PCR; format: cell-based; conditions: 25 μM inhibitor, 72 or 96 hours, FIG. 13
Description: as §2, §3

[12] = tested on: glioblastoma cell line (A172, T98G, U251, and U87); test: Cell Proliferation ELISA BrdU incorporation; format: cell-based, human; conditions: glioblastoma cells; FIG. 10C
Description: Each cell line was cultured overnight and then cultured in medium to which AR-A014418 or SB-216763 dissolved in DMSO had been added to predetermined concentrations (5 μM, 10 μM, 25 μM or 40 μM, and 50 μM). Number of viable cells and apoptosis frequencies were measured over time. As controls, number of viable cells and apoptosis frequencies were also measured for cells that had been cultured after addition of the same amount of DMSO. In addition, unlike <Example 1>, a WST-8** assay kit (Cell Counting Kit-8, Wako, Osaka) and a microplate reader produced by Bio-Rad Laboratories, Inc. (Hercules, Calif.) were used for measurement of number of viable cells. Furthermore, regarding cell fractions during the proliferation phase, the number of cells incorporating bromodeoxy uridine (BrdU) was measured using a Cell Proliferation ELISA BrdU Kit (Roche, Panzberg, Germany), and then the influence of the GSK3β inhibitor (AR-A014418 or SB-216763) on the proliferation of tumor cells was analyzed.

HEK293 cells [13] = test: Apoptosis frequency; format: cell-based, human; conditions: compared with DMSO, FIG. 10B
Description: (§7) In this example, 4 types of glioblastoma cell line (A172, T98G, U251, and U87 purchased from American Type Culture Collection [ATCC, Manassas, Va.]) and human embryonic kidney cells HEK293 were used as subjects. The expression of GSK3β and the expression of its fractions that had undergone phosphorylation in these cell lines were analyzed in accordance with <Example 1>. Furthermore, the effects of a known GSK3β inhibitor (AR-A014418 or SB-216763) on the survival, proliferation, and apoptosis of tumor cells were analyzed in a manner similar to that in the case of colon cancer cells. Each cell line was cultured overnight and then cultured in medium to which AR-A014418 or SB-216763 dissolved in DMSO had been added to predetermined concentrations (5 μM, 10 μM, 25 μM or 40 μM, and 50 μM). Number of viable cells and apoptosis frequencies were measured over time. As controls, number of viable cells and apoptosis frequencies were also measured for cells that had been cultured after addition of the same amount of DMSO. In addition, unlike <Example 1>, a WST-8** assay kit (Cell Counting Kit-8, Wako, Osaka) and a microplate reader produced by Bio-Rad Laboratories, Inc. (Hercules, Calif.) were used for measurement of number of viable cells. Furthermore, regarding cell fractions during the proliferation phase, the number of cells incorporating bromodeoxy uridine (BrdU) was measured using a Cell Proliferation ELISA BrdU Kit (Roche, Panzberg, Germany), and then the influence of the GSK3β inhibitor (AR-A014418 or SB-216763) on the proliferation of tumor cells was analyzed.

[14] = tested on: glioblastoma cell line (A172, T98G, U251, and U87); test: Apoptosis frequency; format: cell-based, human; conditions: glioblastoma cells; compared with DMSO; FIG. 10B
Description: as §7

For `COc1ccc(CNC(=O)Nc2ncc([N+](=O)[O-])s2)cc1` [AR-A014418, N-(4-methoxybenzyl)-N′-(5-nitro-1,3-thiazol-2-yl)urea], the “number of viable cells” value [1] was “decreased in a manner depending on the concentration of each inhibitor”, the “cellular proliferation rates (PCNA labeling index)” value (colon cancer cells) was “lowered” and the apoptosis frequency (colon cancer cells) was “increased”. For the same molecule, the “changes in apoptosis frequency” value (HEK293 cells [2]) was “minimal”, the “changes in cellular proliferation rates (PCNA labeling index)” value (HEK293 cells [2]) was “minimal” and the telomerase activity [3] was “suppressed”. The telomerase activity [4] was “nor suppression of telomerase activity”, the “frequencies of senescent cells (x-gal staining positive)” value [5] was “significantly increased” and the “frequency of senescent cells (x-gal staining positive)” value (HEK293 cells [6]) was “no significant differences”. For the same molecule, the “GSK3β activity (phosphorylation of recombinant human β-catenin)” value [7] was “completely inhibited”, the “survival (rate) of cells” value [8] was “decreased in a manner depending on the dose” and the “effect to suppress cell survival” value (HEK293 cells [9]) was “not observed”. The hTERT expression [10] was “neither changes in hTERT expression”, the hTERT expression [11] was “suppressed” and the “proliferation (BrdU incorporated)” value [12] was “suppressed”. The apoptosis (HEK293 cells [13]) was “mildly induced by the addition of the GSK3β inhibitor to the medium, but no significant differences were observed” and the apoptosis [14] was “significantly induced”.

`Cn1cc(C2=C(c3ccc(Cl)cc3Cl)C(=O)NC2=O)c2ccccc21` [SB-216763, 3-(2,4-Dichlorophenyl)-4-(1-methyl-1H-indol-3-yl)-1H-pyrrole-2,5-dione] was tested, and the “number of viable cells” value [1] was “decreased in a manner depending on the concentration of each inhibitor”, the “cellular proliferation rates (PCNA labeling index)” value (colon cancer cells) was “lowered” and the apoptosis frequency (colon cancer cells) was “increased”. For the same molecule, the “changes in apoptosis frequency” value (HEK293 cells [2]) was “minimal”, the “changes in cellular proliferation rates (PCNA labeling index)” value (HEK293 cells [2]) was “minimal” and the telomerase activity [3] was “suppressed”. The telomerase activity [4] was “nor suppression of telomerase activity”, the “frequencies of senescent cells (x-gal staining positive)” value [5] was “significantly increased” and the “frequency of senescent cells (x-gal staining positive)” value (HEK293 cells [6]) was “no significant differences”. The “GSK3β activity (phosphorylation of recombinant human β-catenin)” value [7] was “completely inhibited”, the “survival (rate) of cells” value [8] was “decreased in a manner depending on the dose” and the “effect to suppress cell survival” value (HEK293 cells [9]) was “not observed”. For the same molecule, the hTERT expression [10] was “neither changes in hTERT expression”, the hTERT expression [11] was “suppressed” and the “proliferation (BrdU incorporated)” value [12] was “suppressed”. The apoptosis (HEK293 cells [13]) was “mildly induced by the addition of the GSK3β inhibitor to the medium, but no significant differences were observed” and the apoptosis [14] was “significantly induced”.
